Assay results published in patent US7897637B2, “Methods of using flavonoids to enhance memory” (The Salk Institute for Biological Studies, priority 2006, dated 2011).

What was measured:
ERK [1] = details: Vanhoutte et al. 1999; English & Sweatt 1997; cited from earlier work
HT22 cells = assay: Protection of HT22 cells from oxidative glutamate toxicity (MTT assay); type: cell-based, mouse; details: 5 mM glutamate ± 50 μM PD98059, 24 hours
Text: Fisetin is effective at protecting nerve cells from oxidative stress-induced death (Ishige et al., Free Radic. Biol. Med., 30:433-446, 2001). This Example illustrates the structure-activity relationship between fisetin derivatives and neuroprotection in a model of oxidative glutamate toxicity using mouse HT22 cells. This pathway of programmed cell death is initiated by the addition of glutamate to the extracellular medium. Glutamate inhibits the uptake of cystine which is required for glutathione (GSH) biosynthesis, resulting in the depletion of GSH in neurons (for review see Tan et al., Curr. Top. Med. Chem., 1:497-506, 2001). Subsequently, this decrease in cellular GSH results in the production of reactive oxygen species (ROS) by mitochondria. The ROS accumulation then causes Ca^+2 influx from the extracellular medium which leads to cell death.
HT22 cells were untreated (Ct) or treated with 10 μM fisetin, 25 μM 3,3′-DHF, 25 μM 3,4′-DHF, 2.5 μM 3′,4′-DHF, 2.5 μM 3,3′,4′-THF 25 μM 3,7,3′-THF, 25 μM 3,7,4′-THF or 10 μM 7,3′,4′-THF in the presence of 5 mM glutamate±50 μM PD98059. Twenty four (24) hours later cell survival was measured by the MTT assay.
HT22 cells were untreated (Ct) or treated with 10 μM fisetin, 25 μM 3,3′-DHF. […] Protection by all of the other flavonoids was unaffected by BSO.
Cell viability was determined by a modified version of the 3-(4,5-dimethylthiazol-2-yl)-2,5-diphenyl tetrazolium bromide (MTT) assay based on the standard procedure (Hansen et al., J. Immunol. Meth., 119:203-10, 1989). Briefly, cells were seeded onto 96-well microtiter plates at a density of 5×10^3 cells per well. The next day, the medium was replaced with DMEM supplemented with 7.5% DFCS and the cells were treated with the different flavonoids alone or in the presence of 5 mM glutamate. Twenty four hours later, the medium in each well was aspirated and replaced with fresh medium containing 2.5 μg/ml MTT. After 4 hours of incubation at 37° C., cells were solubilized with 100 μl of a solution containing 50% dimethylformamide and 20% SDS (pH 4.7). The absorbance at 570 nm was measured on the following day with a microplate reader (Molecular Devices). Results obtained from the MTT assay correlated directly with the extent of cell death as confirmed visually. Controls employing wells without cells were used to determine the effects of the agents upon the assay chemistry.

ERK [2] = assay: ERK activation in PC12 cells (immunoblotting, anti-phospho ERK); type: cell-based; details: 50 μM PD98059, 30 minutes pretreatment, flavonoids 4 hours
Procedure: PC12 cells were treated with the optimal concentrations for differentiation of the different derivatives for 10 minutes to 6 hours; then the cells were scraped into sample buffer and analyzed by SDS-PAGE and immunoblotting with an antibody specific for phosphorylated ERKs (anti-phospho ERK) and an antibody that detects phosphorylated and unphosphorylated ERKs (anti-ERK),
ERK activation by the different flavonoids was blocked by pretreatment with PD98059, an inhibitor of MEK, the kinase which phosphorylates ERK. PC12 cells in N2 medium were untreated (control) or treated with 10 μM fisetin, 25 μM 3,3′-DHF, 25 μM 3,4′-DHF, 25 μM 3′,4′-DHF, 5 μM 3,3′,4′-THF, 25 μM 3,7,3′-THF, 25 μM 3,7,4′-THF or 10 μM 7,3′,4′-THF for 4 hours in the absence or presence of 50 μM PD98059 (30 minutes pretreatment). The cells then were scraped into sample buffer and analyzed by SDS-PAGE and immunoblotting with an antibody specific for phosphorylated ERKs (anti-phospho ERK) and an antibody that detects phosphorylated and unphosphorylated ERKs (anti-ERK). […]
PC12 cells in N2 medium were treated with the flavonoids as described in the text and, after the indicated time periods, the cells were solubilized in SDS sample buffer containing 0.1 mM Na3VO4 and 1 mM phenylmethylsulfonyl fluoride (PMSF), boiled for 5 minutes and either analyzed immediately or stored frozen at −70° C. […]

ERK [3] = assay: ERK activation in primary cortical neuron cultures (immunoblotting); type: cell-based, rat; details: 50 μM PD98059 pretreatment, 10 μM fisetin 4 hours
Procedure: (§1) The average phosphoprotein signal from the blots was quantified by densitometry and normalized to total protein,
(§2) Five (5) day old cortical cultures were next pretreated with 50 μM of the MEK inhibitor, PD98059, before the addition of 10 μM fisetin for 4 hours.
(§3) Primary cultures of rat cortical neurons were prepared as previously described by Li et al. (Neuron, 19:453-63, 1997, herein incorporated by reference as to the method). Analysis of ERK and CREB phosphorylation was performed using SDS-polyacrylamide gel electrophoresis and immunoblotting as previously described by Sagara et al. (J. Neurochem., 90:1144-1155, 2004) using equal amounts of protein from 5 day old cortical cultures. Blots were scanned and quantified using NIH Image. Results were analyzed using an unpaired Student's t-test.

CREB [4] = assay: CREB activation in primary cortical neuron cultures (immunoblotting); type: cell-based, rat; details: 50 μM PD98059 pretreatment, 10 μM fisetin 4 hours
Procedure: as §1, §2, §3

[5] = test system: CA1 area of rat hippocampal slices; assay: Long-term potentiation in CA1 area of hippocampal slices; type: cell-based
ERK2 (p42) = ERK2 (p42) phosphorylation in hippocampal slices (immunoblotting, densitometry); type: cell-based, rat; details: inhibitor alone (50 μM PD98059 or 10 μM U0126, 30 minutes)
Procedure: (§4) Western blots panels A and B) of hippocampal slices treated with (A) 1 μM fisetin or (B) pretreated for 30 minutes with either 50 μM PD98059 (PD) or 10 μM U0126 (U) before the addition of 1 μM fisetin for 5 minutes, which blots were probed with the indicated antibodies.
(§5) Hippocampal slices in artificial cerebral spinal fluid (ACSF) were treated with either 1 μM fisetin for 5-20 minutes or pretreated for 30 minutes with either 50 μM PD98059 (PD) or 10 μM U0126 (J) before the addition of 1 μM fisetin for 5 minutes. Equal amounts of protein were analyzed by SDS-PAGE and immunoblotting with antibodies to phospho-ERK and phospho-CRFB along with antibodies to the unphosphorylated forms of the proteins. The average phosphoprotein signal from the blots was quantified by densitometry and normalized to total protein was plotted±S.D.

ERK1 (p44) = ERK1 (p44) phosphorylation in hippocampal slices (immunoblotting, densitometry); type: cell-based, rat; details: inhibitor alone (50 μM PD98059 or 10 μM U0126, 30 minutes)
Procedure: as §4, §5

CREB [6] = assay: CREB phosphorylation in hippocampal slices (immunoblotting, densitometry); type: cell-based, rat; details: inhibitor alone (50 μM PD98059 or 10 μM U0126, 30 minutes)
Procedure: as §4, §5

Male C57Bl/6J mice = assay: Object recognition task; type: in vivo; details: oral, dose not given; vs vehicle
Procedure: The effect of fisetin, 3,3′,4′-THF, and apigenin (5,7,4′-THF) on memory was tested in mice using an object recognition task (Ennaceur and Delacour, Behav. Brain Res., 31:47-59, 1988). Among the alternatives available for testing memory, this assay has proven very effective for measuring CREB-dependent functions (Prickaerts et al., Neurosci., 113:351-61, 2002; Bourtchouladze et al., Proc. Natl. Acad. Sci. USA, 100:10518-22, 2003). In this test, mice are presented with two identical objects during the training period which they explore for a fixed time period. To test for memory, mice are presented one day later with two different objects, one of which was presented previously during the training and is thus familiar to the mice, and the other that is novel. The better a mouse remembers the familiar object, the more time it will spend exploring the novel object. To test the effects of fisetin, 3,3′,4′-THF, or apigenin (5,7,4′-THF) in this memory task, the respective compound was administered orally to the mice before the start of the training period. Rolipram, a phosphodiesterase inhibitor that potentiates memory in this assay (Bourtchouladze et al., Proc. Natl. Acad. Sci. USA, 100:10518-22, 2003), requires intraperitoneal injection and was used as a positive control.
Male C57Bl/6J mice (Jackson Laboratories) were used and the testing was done by PsychoGenics (Tarrytown, N.Y.). All mice were acclimated to the colony room for at least 2 weeks prior to testing and were tested at an average age of 8 weeks. Mice were randomly assigned across treatment groups with 10 mice in each group. For each dose tested, a 10× solution of fisetin was prepared in 95% ethanol and then diluted with 4 volumes polyethylene glycol 660 hydroxystearate (Solut HS15 from BASF) and 5 volumes phosphate buffered saline. The vehicle was contained the identical ratios of ethanol, Solut HS15 and phosphate buffered saline. All were administered orally 60 minutes prior to training at a volume of 10 ml/kg body weight. Rolipram was dissolved in 10% DMSO and administered intraperitoneally 20 minutes prior to training. The test was performed as previously described by Bourtchouladze et al. (Proc. Natl. Acad. Sci. USA, 100:10518-22, 2003). Briefly, on Day 1 mice were habituated to a circular open field arena for one hour in cage groups of four. Twenty-four (24) hours later, individual mice were placed back in the same arena which now contained two identical objects for a 15 minutes training trial. […] Each animal's test trial was recorded and the first 10 minutes of each session were scored. […] Data were analyzed by a one-way ANOVA followed by post-hoc comparisons with Fisher's test. […]

CREB [7] = details: Vanhoutte et al. 1999; cited from earlier work
cAMP = cAMP levels in hippocampal slices (Scintillation Proximity Assay); type: cell-based
Procedure: Hippocampal slices were treated with fisetin using the conditions where maximal stimulation of CREB phosphorylation and facilitation of LTP were observed. Briefly, hippocampal slices in ACSF were treated with 1 μM fisetin for 5 minutes (fisetin) or 3 μM rolipram for 30 minutes (rolipram) and then either immediately frozen or treated with […] forskolin for an additional 15 minutes (rolipram+forskolin; fisetin+forskolin) prior to freezing. Additional slices were treated only with 5 μM forskolin for 15 minutes (forskolin). Forskolin, an activator of adenylyl cyclase, and rolipram were used as positive controls. The levels of cAMP in the slices were measured using a Scintillation Proximity Assay and presented as pmole/mg protein±S.D.

## CN[C@H](CC(=O)O)C(=O)O [NMDA]
ERK [1]
  increase in ERK phosphorylation reported following treatment of slices: ~2.5 fold

## COc1cccc(-c2cc(=O)c3ccccc3o2)c1N [PD98059, reference compound]
HT22 cells
  effect on the ability of fisetin or its derivatives to prevent cell death: no significant effect
ERK [2]
  effect on ERK activation by the different flavonoids: blocked
ERK [3]
  effect on activation of ERK by fisetin: blocked
CREB [4]
  effect on activation of CREB by fisetin: blocked
[5]; PD98059 added 10 minutes prior to fisetin
  effect on fisetin-induced facilitation of LTP: blocked
[5]; no tetanus
  effect on basal synaptic transmission: no effect
ERK2 (p42)
  p42 phosphoprotein signal normalized to total protein: 0.83±0.08
ERK1 (p44)
  p44 phosphoprotein signal normalized to total protein: 0.75±0.5
CREB [6]
  CREB phosphoprotein signal normalized to total protein: 0.64±0.11

## O=c1cc(-c2ccc(O)cc2)oc2cc(O)cc(O)c12 [apigenin, reference compound]
Male C57Bl/6J mice
  object recognition: did not exhibit significantly better object recognition

## N[C@@H](CCC(=O)O)C(=O)O [glutamate]
CREB [7]
  increase in CREB phosphorylation reported following treatment of slices: ~2.5 fold
ERK [1]
  increase in ERK phosphorylation reported following treatment of slices: 1.5-2 fold

## COc1ccc(C2CNC(=O)C2)cc1OC1CCCC1 (stereo not drawn) [rolipram, reference compound]
cAMP; 1 μM fisetin 5 minutes, 3 μM rolipram 30 minutes
  effect on cAMP levels by itself: modestly increased
cAMP; then 5 μM forskolin for 15 minutes
  potentiation of the effect of forskolin on cAMP levels: significantly potentiated
